These results are taken from ChEMBL document CHEMBL3044668, “Synthesis of (substituted benzamidostyryl) lH-benzimidazoles and their screening for anti-inflammatory activity” (Med Chem Res, 2012).

In data set [1] the test system is Rattus norvegicus. The data set can be described thus: Anti-inflammatory activity against Rattus norvegicus Wistar albino (rat) assessed as inhibition of carrageenan-induced paw edema at 20 mg/kg, ip measured 3 hr after carrageenan challenge by plethysmometer. Type of data set: functional. Conditions: route intraperitoneal. A general note: Carrageenan injected into the paw causes an acute inflammation.

Data set [2] has as its system Rattus norvegicus. The data set is described as follows: Anti-inflammatory activity against Rattus norvegicus Wistar albino (rat) assessed as inhibition of carrageenan-induced paw edema at 20 mg/kg, ip measured 4 hr after carrageenan challenge by plethysmometer. Conditions: route intraperitoneal. Type of data set: functional.
For data set [3], the system named is Rattus norvegicus. The data set is described as follows: Gastrointestinal toxicity in Rattus norvegicus Wistar (rat) assessed as ulcer index at 30 mg/kg, po measured after 17 hr. Type of data set: organism-based. Details: dose 30 mg/kg, route oral. Conditions: in vivo.
The subject of data set [4] is Rattus norvegicus. The data set can be described thus: Anti-inflammatory activity against Rattus norvegicus Wistar albino (rat) assessed as inhibition of carrageenan-induced paw edema at 10 mg/kg, ip measured 3 hr after carrageenan challenge by plethysmometer. Type of data set: functional. Conditions: route intraperitoneal.
Data set [5] concerns Rattus norvegicus. The data set is described as follows: Gastrointestinal toxicity in Rattus norvegicus Wistar (rat) assessed as ulcer index at 20 mg/kg, po measured after 17 hr. Type of data set: organism-based. Also noted: dose 20 mg/kg, route oral. Conditions: in vivo.
The subject of data set [6] is Rattus norvegicus. The data set is described as follows: Anti-inflammatory activity against Rattus norvegicus Wistar albino (rat) assessed as inhibition of carrageenan-induced paw edema at 10 mg/kg, ip measured 4 hr after carrageenan challenge by plethysmometer. Type of data set: functional. Conditions: route intraperitoneal.

As a reminder, the inhibition in vivo is the percentage by which the read-out fell short of the control. As to `O=C(N/C(=C/c1ccccc1)c1nc2ccc([N+](=O)[O-])cc2[nH]1)c1ccccc1`, the inhibition in vivo at 20 mg/kg is 33.3% in the data set with Rattus norvegicus [1] and 50% with Rattus norvegicus [2].
Take `COc1ccc(/C=C(/NC(=O)c2ccccc2)c2nc3ccc([N+](=O)[O-])cc3[nH]2)cc1`: the inhibition in vivo at 20 mg/kg was determined as 24.2% with Rattus norvegicus [1] and 51.3% with Rattus norvegicus [2]. In the data set on Rattus norvegicus [3], the UI turned out to be 1.41.
The like results for `O=C(N/C(=C/c1ccccc1Cl)c1nc2ccc([N+](=O)[O-])cc2[nH]1)c1ccccc1` were, in that order, 42.4%, 59% and 0.75.
Turning to `Cc1ccc2nc(/C(=C\c3ccccc3)NC(=O)c3ccccc3)[nH]c2c1`, the inhibition in vivo at 20 mg/kg in the data set on Rattus norvegicus [1] was determined as 27.3%; with Rattus norvegicus [2], 46.1%.
The like results for `COc1ccc(/C=C(/NC(=O)c2ccccc2)c2nc3ccc(C)cc3[nH]2)cc1` were, in that order, 30.3% and 53.8%.
Consider `Cc1ccc2nc(/C(=C\c3ccccc3Cl)NC(=O)c3ccccc3)[nH]c2c1`, for which the inhibition in vivo at 20 mg/kg is 36.4% in the data set on Rattus norvegicus [1] and 50% with Rattus norvegicus [2].
The like results for `O=C(N/C(=C/c1ccccc1)c1nc2ccccc2[nH]1)c1ccccc1` were, in that order, 39.4% and 46.1%.
On to `Cc1ccc(/C=C(/NC(=O)c2ccccc2)c2nc3ccccc3[nH]2)cc1`, for which the values for the inhibition in vivo at 20 mg/kg with Rattus norvegicus [1] and in the data set with Rattus norvegicus [2] were 39.4% and 47.4%, respectively. Moreover, the UI in the data set with Rattus norvegicus [3] was 1.
On to `O=C(N/C(=C/c1ccc(O)cc1)c1nc2ccccc2[nH]1)c1ccccc1`, for which the inhibition in vivo at 20 mg/kg was 27.3% in the data set with Rattus norvegicus [1] and 47.4% with Rattus norvegicus [2].
As for `COc1ccc(/C=C(/NC(=O)c2ccccc2)c2nc3ccccc3[nH]2)cc1`, the inhibition in vivo at 20 mg/kg was 39.4% in the data set on Rattus norvegicus [1] and 35.9% in the data set with Rattus norvegicus [2].
With `O=C(N/C(=C/c1ccccc1Cl)c1nc2ccccc2[nH]1)c1ccccc1`, the inhibition in vivo at 20 mg/kg with Rattus norvegicus [1] came out at 30.3%; in the data set with Rattus norvegicus [2], 43.6%.
The like results for `CN(C)c1ccc(/C=C(/NC(=O)c2ccccc2)c2nc3ccccc3[nH]2)cc1` were, in that order, 18.2% and 34.6%.
Consider `COc1ccc2c(c1)c(CC(=O)O)c(C)n2C(=O)c1ccc(Cl)cc1` [INDOMETHACIN], for which the inhibition in vivo at 10 mg/kg with Rattus norvegicus [4] was 48.5%; in the data set on Rattus norvegicus [6] it was 77.2%. Also, the UI in the data set with Rattus norvegicus [5] is 4.5.
